Values of other authors as cited in patent US12557816B2, “Compositions for controlling a plant disease” (NutriAg Ltd., priority 2017, dated 2026).

Conditions: phosphorous acid: second dissociation; hydrogen phosphite ion: conjugate base

Row | Molecule | pKa
1 | hydrogen phosphite [hydrogen phosphite (or phosphonate) ion] | about 6.7
2 | OP(O)O [Phosphorous acid, phosphorous acid] | about 1.3
